Key:
[1] = biological target: Serine/threonine-protein kinase ULK3 (Homo sapiens, UniProt Q6PHR2); experiment: ULK3(ULK3LGF1) Takeda global kinase panel
[2] = biological target: Cyclin-dependent kinase 18 (Homo sapiens, UniProt Q07002); experiment: PCTAIRE3(CD18SGS1) Takeda global kinase panel
[3] = biological target: Receptor-type tyrosine-protein kinase FLT3 (Homo sapiens, UniProt P36888); experiment: FLT3(FLT3MGE1) Takeda global kinase panel
[4] = biological target: Protein kinase C beta type (Homo sapiens, UniProt P05771); experiment: PKCbeta(PRKBPHY3) Takeda global kinase panel
Sequence of Protein kinase C beta type (P05771 whole entry): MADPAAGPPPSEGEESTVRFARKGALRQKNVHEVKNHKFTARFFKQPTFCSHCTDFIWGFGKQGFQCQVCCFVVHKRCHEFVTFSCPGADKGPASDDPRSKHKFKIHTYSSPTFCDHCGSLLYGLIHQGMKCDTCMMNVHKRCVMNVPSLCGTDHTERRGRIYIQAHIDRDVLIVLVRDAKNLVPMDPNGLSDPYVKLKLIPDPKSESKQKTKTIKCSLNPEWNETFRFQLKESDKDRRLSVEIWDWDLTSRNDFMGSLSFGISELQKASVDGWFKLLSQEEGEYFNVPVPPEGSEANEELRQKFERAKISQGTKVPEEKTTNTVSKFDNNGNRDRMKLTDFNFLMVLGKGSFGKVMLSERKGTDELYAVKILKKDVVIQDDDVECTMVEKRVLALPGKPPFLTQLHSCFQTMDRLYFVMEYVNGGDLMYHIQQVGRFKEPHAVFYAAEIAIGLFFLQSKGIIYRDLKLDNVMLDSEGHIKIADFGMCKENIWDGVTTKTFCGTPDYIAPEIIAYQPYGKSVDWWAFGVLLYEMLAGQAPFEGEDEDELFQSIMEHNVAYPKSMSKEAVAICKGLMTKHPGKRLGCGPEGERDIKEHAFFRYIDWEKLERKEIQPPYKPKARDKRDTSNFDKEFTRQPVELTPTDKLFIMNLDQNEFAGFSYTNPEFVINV

[5] = biological target: High affinity nerve growth factor receptor (Homo sapiens, UniProt P04629); experiment: TRKA(NTR1LGN1) Takeda global kinase panel
LIM domain kinase 1 = LIM domain kinase 1 (Homo sapiens, UniProt P53667); experiment: LIMK1(LIM1LGY1) Takeda global kinase panel
[6] = biological target: Muscle, skeletal receptor tyrosine-protein kinase (Homo sapiens, UniProt O15146); experiment: MUSK(MUSKLGY1) Takeda global kinase panel
Sequence of Muscle, skeletal receptor tyrosine-protein kinase (O15146 whole entry): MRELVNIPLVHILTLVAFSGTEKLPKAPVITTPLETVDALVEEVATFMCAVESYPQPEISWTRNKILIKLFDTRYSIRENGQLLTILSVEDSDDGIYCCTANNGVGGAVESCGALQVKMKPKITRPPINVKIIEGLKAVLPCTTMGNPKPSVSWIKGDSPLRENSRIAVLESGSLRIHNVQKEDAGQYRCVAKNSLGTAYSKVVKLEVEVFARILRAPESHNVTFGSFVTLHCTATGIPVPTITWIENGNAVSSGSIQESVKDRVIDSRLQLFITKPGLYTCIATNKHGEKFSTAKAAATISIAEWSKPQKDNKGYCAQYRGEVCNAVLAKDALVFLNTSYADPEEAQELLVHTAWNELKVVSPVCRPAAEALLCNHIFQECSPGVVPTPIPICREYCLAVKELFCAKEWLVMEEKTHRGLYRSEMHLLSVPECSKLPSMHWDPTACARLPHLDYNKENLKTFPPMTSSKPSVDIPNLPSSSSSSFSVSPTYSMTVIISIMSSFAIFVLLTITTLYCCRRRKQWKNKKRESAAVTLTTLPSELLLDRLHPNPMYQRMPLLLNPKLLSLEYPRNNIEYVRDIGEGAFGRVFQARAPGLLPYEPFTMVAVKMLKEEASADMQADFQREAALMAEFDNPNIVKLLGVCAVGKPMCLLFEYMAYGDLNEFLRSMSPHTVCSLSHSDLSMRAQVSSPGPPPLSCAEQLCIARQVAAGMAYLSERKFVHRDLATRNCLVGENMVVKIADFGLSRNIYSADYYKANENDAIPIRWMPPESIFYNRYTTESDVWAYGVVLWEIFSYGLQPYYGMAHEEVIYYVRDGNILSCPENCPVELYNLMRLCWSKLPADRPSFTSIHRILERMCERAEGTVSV

Ephrin type-A receptor 7 = Ephrin type-A receptor 7 (Homo sapiens, UniProt Q15375); experiment: EphA7(EPA7LGF1) Takeda global kinase panel
[7] = biological target: Epidermal growth factor receptor (Homo sapiens, UniProt P00533); experiment: EGFR(EGFRMGB1) Takeda global kinase panel
[8] = biological target: Uncharacterized serine/threonine-protein kinase SBK3 (Homo sapiens, UniProt P0C264); experiment: SgK110(SG10LGF1) Takeda global kinase panel
[9] = biological target: Cyclin-dependent kinase 6 (Homo sapiens, UniProt Q00534); experiment: CDK6(CDK6CGS1) Takeda global kinase panel
[10] = biological target: Casein kinase I isoform gamma-1 (Homo sapiens, UniProt Q9HCP0); experiment: CK1gamma1(C1G1LGI1) Takeda global kinase panel
[11] = biological target: Serine/threonine-protein kinase PLK1 (Homo sapiens, UniProt P53350); experiment: PLK1(PLK1LGY1) Takeda global kinase panel
[12] = biological target: Mitogen-activated protein kinase 13 (Homo sapiens, UniProt O15264); experiment: p38delta(MP13LGP1) Takeda global kinase panel
[13] = biological target: cAMP-dependent protein kinase catalytic subunit PRKX (Homo sapiens, UniProt P51817); experiment: PRKX(PRKXLGH5) Takeda global kinase panel
[14] = biological target: Tyrosine-protein kinase Blk (Homo sapiens, UniProt P51451); experiment: BLK(BLK1CGF1) Takeda global kinase panel
[15] = biological target: Mitogen-activated protein kinase kinase kinase kinase 5 (Homo sapiens, UniProt Q9Y4K4); experiment: KHS1(M4K5LGY1) Takeda global kinase panel
[16] = biological target: Insulin-like growth factor 1 receptor (Homo sapiens, UniProt P08069); experiment: IGF1R(IGF1LGF1) Takeda global kinase panel
[17] = biological target: RAC-beta serine/threonine-protein kinase (Homo sapiens, UniProt P31751); experiment: Akt2 [PKBbeta(AKT2CGY1)] Takeda global kinase panel
Activated CDC42 kinase 1 = Activated CDC42 kinase 1 (Homo sapiens, UniProt Q07912); experiment: Ack(TNK2LGF1) Takeda global kinase panel
[18] = biological target: Sigma non-opioid intracellular receptor 1 (Homo sapiens) (UniProt Q99720); experiment: Sigma 1 Eurofins-Panlabs radioligand binding assay; parameters: ligand concentration 15 nM; conditions: Compound concentration 10.0 uM
Sequence of Sigma non-opioid intracellular receptor 1 (Homo sapiens) (Q99720 whole entry): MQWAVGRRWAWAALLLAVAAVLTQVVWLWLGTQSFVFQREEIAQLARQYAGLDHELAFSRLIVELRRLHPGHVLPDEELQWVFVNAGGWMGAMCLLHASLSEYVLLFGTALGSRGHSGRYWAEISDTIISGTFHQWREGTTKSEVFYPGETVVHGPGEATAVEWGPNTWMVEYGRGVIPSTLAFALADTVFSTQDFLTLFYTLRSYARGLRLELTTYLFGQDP

[19] = biological target: T1, Muscarinic acetylcholine receptor M2 (Homo sapiens) (UniProt P08172); conditions: Compound concentration 10.0 uM
T1 sequence (whole entry): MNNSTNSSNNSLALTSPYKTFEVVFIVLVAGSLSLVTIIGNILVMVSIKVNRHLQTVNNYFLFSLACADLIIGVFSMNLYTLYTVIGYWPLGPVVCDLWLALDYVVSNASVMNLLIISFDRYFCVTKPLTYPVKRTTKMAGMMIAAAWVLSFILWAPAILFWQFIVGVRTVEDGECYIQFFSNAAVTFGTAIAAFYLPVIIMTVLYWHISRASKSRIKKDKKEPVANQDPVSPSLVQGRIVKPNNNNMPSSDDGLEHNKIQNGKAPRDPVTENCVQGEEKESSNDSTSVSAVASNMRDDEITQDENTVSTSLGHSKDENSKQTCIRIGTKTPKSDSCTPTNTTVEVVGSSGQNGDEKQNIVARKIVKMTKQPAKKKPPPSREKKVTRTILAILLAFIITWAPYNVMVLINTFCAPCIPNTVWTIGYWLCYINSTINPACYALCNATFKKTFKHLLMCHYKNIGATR

[20] = biological target: Interferon-induced, double-stranded RNA-activated protein kinase (Homo sapiens, UniProt P19525); experiment: PKR(EIK2LGY1) Takeda global kinase panel
[21] = biological target: Mitotic checkpoint serine/threonine-protein kinase BUB1 (Homo sapiens, UniProt O43683); experiment: Bub1(BUB1LGRL) Takeda global kinase panel
[22] = biological target: Serine/threonine-protein kinase PAK 6 (Homo sapiens, UniProt Q9NQU5); experiment: PAK6(PAK6CGY1) Takeda global kinase panel
Sequence of Serine/threonine-protein kinase PAK 6 (Q9NQU5 whole entry): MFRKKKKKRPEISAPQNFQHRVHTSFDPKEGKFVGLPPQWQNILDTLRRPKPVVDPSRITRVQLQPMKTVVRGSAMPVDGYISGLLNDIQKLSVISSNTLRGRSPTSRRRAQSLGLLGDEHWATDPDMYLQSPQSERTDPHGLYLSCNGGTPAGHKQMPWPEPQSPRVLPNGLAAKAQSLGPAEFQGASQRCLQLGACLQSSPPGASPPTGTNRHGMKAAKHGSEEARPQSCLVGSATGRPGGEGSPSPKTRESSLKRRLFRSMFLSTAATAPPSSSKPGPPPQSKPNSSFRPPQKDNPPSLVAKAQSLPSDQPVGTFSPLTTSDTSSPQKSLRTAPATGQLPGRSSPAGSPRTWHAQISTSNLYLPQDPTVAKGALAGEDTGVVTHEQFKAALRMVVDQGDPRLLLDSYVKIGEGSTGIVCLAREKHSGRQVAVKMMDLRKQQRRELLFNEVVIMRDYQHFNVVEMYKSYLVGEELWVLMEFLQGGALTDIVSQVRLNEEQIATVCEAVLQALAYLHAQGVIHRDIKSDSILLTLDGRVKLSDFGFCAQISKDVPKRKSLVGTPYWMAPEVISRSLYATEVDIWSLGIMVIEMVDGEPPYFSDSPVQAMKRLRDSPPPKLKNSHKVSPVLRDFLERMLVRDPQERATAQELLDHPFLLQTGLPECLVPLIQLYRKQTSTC

Wee1-like protein kinase = Wee1-like protein kinase (Homo sapiens, UniProt P30291); experiment: Wee1(WEE1LGF1) Takeda global kinase panel
[23] = biological target: Calcium/calmodulin-dependent protein kinase type 1B (Homo sapiens, UniProt Q6P2M8); experiment: CaMK1beta(PNCKLGRI) Takeda global kinase panel
[24] = biological target: Dual specificity protein kinase CLK3 (Homo sapiens, UniProt P49761); experiment: CLK3(CLK3LGY1) Takeda global kinase panel
[25] = biological target: RAC-gamma serine/threonine-protein kinase (Homo sapiens, UniProt Q9Y243); experiment: Akt3 [PKBgamma(AKT3LGY1)] Takeda global kinase panel
[26] = biological target: Serine/threonine-protein kinase Sgk2 (Homo sapiens, UniProt Q9HBY8); experiment: SGK2(SGK2LGE5) Takeda global kinase panel
[27] = biological target: Receptor-interacting serine/threonine-protein kinase 3 (Homo sapiens, UniProt Q9Y572); experiment: RIPK3(RIP3IGRI) Takeda global kinase panel
[28] = biological target: Proto-oncogene tyrosine-protein kinase ROS (Homo sapiens, UniProt P08922); experiment: Ros(ROS1PHY1) Takeda global kinase panel
Sequence of Proto-oncogene tyrosine-protein kinase ROS (P08922 whole entry): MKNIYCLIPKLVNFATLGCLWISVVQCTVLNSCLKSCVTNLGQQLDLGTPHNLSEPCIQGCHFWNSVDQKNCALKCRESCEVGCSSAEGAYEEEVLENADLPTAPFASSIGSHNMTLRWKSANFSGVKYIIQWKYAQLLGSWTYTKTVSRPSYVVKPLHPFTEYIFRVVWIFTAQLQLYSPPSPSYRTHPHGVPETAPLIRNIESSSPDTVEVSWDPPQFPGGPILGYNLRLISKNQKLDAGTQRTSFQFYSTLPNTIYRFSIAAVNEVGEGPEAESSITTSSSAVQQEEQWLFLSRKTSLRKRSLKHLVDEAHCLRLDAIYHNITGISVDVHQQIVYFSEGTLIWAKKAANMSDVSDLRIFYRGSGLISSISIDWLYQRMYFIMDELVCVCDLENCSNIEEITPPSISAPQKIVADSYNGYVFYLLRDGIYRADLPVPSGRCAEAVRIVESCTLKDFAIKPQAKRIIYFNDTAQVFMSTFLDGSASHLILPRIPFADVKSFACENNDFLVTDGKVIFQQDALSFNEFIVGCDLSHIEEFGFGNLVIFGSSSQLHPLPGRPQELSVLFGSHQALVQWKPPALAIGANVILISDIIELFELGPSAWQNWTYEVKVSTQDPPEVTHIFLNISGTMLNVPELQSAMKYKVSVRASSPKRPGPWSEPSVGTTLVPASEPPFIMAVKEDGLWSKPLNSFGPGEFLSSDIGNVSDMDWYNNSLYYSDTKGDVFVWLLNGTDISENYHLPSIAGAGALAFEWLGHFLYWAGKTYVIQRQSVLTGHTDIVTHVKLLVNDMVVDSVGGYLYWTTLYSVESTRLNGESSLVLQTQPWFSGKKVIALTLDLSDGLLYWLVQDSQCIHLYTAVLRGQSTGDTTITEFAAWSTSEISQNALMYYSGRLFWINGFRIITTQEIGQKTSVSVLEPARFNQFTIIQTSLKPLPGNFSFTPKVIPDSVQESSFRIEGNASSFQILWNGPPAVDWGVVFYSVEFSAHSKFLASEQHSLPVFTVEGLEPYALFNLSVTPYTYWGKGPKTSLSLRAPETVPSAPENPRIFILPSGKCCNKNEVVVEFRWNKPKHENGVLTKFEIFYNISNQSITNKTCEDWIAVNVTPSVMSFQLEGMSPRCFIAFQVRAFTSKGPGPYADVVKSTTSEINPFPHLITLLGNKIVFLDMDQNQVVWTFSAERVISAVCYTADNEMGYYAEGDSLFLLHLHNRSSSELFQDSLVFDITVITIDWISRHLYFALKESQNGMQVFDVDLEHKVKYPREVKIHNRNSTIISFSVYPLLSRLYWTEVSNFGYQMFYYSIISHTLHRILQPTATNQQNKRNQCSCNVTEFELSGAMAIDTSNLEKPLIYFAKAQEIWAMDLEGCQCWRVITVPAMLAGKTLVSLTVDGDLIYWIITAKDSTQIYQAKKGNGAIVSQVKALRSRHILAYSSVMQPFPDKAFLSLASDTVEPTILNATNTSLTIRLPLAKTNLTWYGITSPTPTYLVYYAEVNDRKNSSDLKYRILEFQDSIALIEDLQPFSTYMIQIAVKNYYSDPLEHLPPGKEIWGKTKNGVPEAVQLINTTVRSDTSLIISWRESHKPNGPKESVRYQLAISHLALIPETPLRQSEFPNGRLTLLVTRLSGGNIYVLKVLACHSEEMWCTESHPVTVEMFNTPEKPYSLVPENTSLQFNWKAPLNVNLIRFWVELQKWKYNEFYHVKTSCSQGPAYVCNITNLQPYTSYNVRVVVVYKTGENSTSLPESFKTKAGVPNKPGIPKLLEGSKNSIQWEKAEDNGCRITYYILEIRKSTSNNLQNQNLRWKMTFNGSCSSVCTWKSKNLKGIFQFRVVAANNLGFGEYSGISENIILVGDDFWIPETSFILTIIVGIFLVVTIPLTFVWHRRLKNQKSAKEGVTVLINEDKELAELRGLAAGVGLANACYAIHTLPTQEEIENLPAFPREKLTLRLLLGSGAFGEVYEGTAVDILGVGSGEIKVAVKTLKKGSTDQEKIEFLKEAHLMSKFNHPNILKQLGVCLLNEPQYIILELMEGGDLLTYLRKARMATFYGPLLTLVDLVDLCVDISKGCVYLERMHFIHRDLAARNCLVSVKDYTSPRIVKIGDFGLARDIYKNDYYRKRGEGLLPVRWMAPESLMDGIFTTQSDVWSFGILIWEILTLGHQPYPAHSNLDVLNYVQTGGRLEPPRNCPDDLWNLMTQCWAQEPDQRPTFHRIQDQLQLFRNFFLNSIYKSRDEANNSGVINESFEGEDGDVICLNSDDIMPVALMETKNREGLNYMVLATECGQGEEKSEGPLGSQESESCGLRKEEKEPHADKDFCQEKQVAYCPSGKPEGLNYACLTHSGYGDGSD

[29] = biological target: Tyrosine-protein kinase ITK/TSK (Homo sapiens, UniProt Q08881); experiment: ITK(ITK1CGF1) Takeda global kinase panel
[30] = biological target: Tyrosine-protein kinase Fer (Homo sapiens, UniProt P16591); experiment: Fer(FER1LGY1) Takeda global kinase panel
[31] = biological target: Dual specificity tyrosine-phosphorylation-regulated kinase 1B (Homo sapiens, UniProt Q9Y463); experiment: DYRK1B(DY1BLHY1) Takeda global kinase panel
[32] = biological target: Serine/threonine-protein kinase BRSK1 (Homo sapiens, UniProt Q8TDC3); experiment: BRSK1(BRS1LGA1) Takeda global kinase panel
[33] = biological target: Cysteinyl leukotriene receptor 1 (Homo sapiens) (UniProt Q9Y271); experiment: Inhibition of Leukotriene, Cysteinyl CysLT1 at 10 µM in the Eurofins-Panlabs radioligand binding assay (Eurofins_assay_250460); parameters: ligand concentration 0.3 nM, non-specific ligand with concentration 0.3 µM Leukotriene D4, incubation time 30 min, incubation temperature 25 °C; conditions: Compound concentration 10.0 uM
[34] = biological target: Insulin receptor-related protein (Homo sapiens, UniProt P14616); experiment: IRR(INSSLGF1) Takeda global kinase panel
[35] = biological target: Testis-specific serine/threonine-protein kinase 1 (Homo sapiens, UniProt Q9BXA7); experiment: TSSK1(TS1BLGP1) Takeda global kinase panel

Structure (SMILES)	IC50 [1] [nM]	IC50 [2] [nM]	IC50 [3] [nM]	IC50 [4] [nM]	IC50 [5] [nM]	IC50 (LIM domain kinase 1) [nM]	IC50 [6] [nM]	IC50 (Ephrin type-A receptor 7) [nM]	IC50 [7] [nM]	IC50 [8] [nM]	IC50 [9] [nM]	IC50 [10] [nM]	IC50 [11] [nM]	IC50 [12] [nM]	IC50 [13] [nM]	IC50 [14] [nM]	IC50 [15] [nM]	IC50 [16] [nM]	IC50 [17] [nM]	IC50 (Activated CDC42 kinase 1) [nM]	other results
CN1C(=O)[C@@H](N2CCc3cn(Cc4ccccc4)nc3C2=O)COc2ccccc21 [TP-030-1]	1000	1000	1000	1000	1000	1000	1000	1000	1000	1000	1000	1000	1000	1000	1000	1000	1000	1000	1000	1000	inhibition [18]: 27%; inhibition [19]: -4%; IC50 [20]: 1000 nM; IC50 [21]: 1000 nM; IC50 [22]: 1000 nM; IC50 (Wee1-like protein kinase): 1000 nM; IC50 [23]: 1000 nM; IC50 [24]: 1000 nM; IC50 [25]: 1000 nM; IC50 [26]: 1000 nM; IC50 [27]: 1000 nM; IC50 [28]: 1000 nM; IC50 [29]: 1000 nM; IC50 [30]: 1000 nM; IC50 [31]: 1000 nM; IC50 [32]: 1000 nM; inhibition [33]: 0%; IC50 [34]: 1000 nM; IC50 [35]: 1000 nM
CN1C(=O)[C@@H](N2CCc3cn(CC4CCS(=O)(=O)CC4)nc3C2=O)COc2ccccc21 [TP-030n]	1000	1000	1000	1000	1000	1000	1000	1000	1000	1000	1000	1000	1000	1000	1000	1000	1000	1000	1000	1000	inhibition [18]: 11%; inhibition [19]: 9%; IC50 [20]: 1000 nM; IC50 [21]: 1000 nM; IC50 [22]: 1000 nM; IC50 (Wee1-like protein kinase): 1000 nM; IC50 [23]: 1000 nM; IC50 [24]: 1000 nM; IC50 [25]: 1000 nM; IC50 [26]: 1000 nM; IC50 [27]: 1000 nM; IC50 [28]: 1000 nM; IC50 [29]: 1000 nM; IC50 [30]: 1000 nM; IC50 [31]: 1000 nM; IC50 [32]: 1000 nM; inhibition [33]: 0%; IC50 [34]: 1000 nM; IC50 [35]: 1000 nM
